The values below come from patent US4070484A, “Antiallergic composition containing aromatic carboxylic amide derivatives and method of using the same” (Kissei Pharmaceutical Co., Ltd., priority 1973, dated 1978).

Entries after “also recorded” stand apart in the source; their conditions may differ. Read-outs that look alike come from different tables or passages of the source. Some results are limits rather than exact numbers.

In series [1] the test system is antiallergic action, oral administration to mammalia. The following applies: known art; cited from earlier work.
The subject of series [2] is sensitized mesenteric mast cells. Nature of the series: Effect on the Disruption of the Sensitized Mast Cells. In kind it is cell-based, rat. Particulars: 10^-5 g/ml, 5 minutes prior to the treatment of antigen. The procedure: Mesenteric mast cells isolated from normal rats were sensitized passively by means of incubation with rat reaginic antibody at 37° C. After termination of the incubation, the specific antigen (DNP-Ascaris) was added to the incubation medium, then these mast cells in mesentery were fixed with formalin and stained with 0.1 % toluidine blue (in acetic acid buffer; pH: 4.6). The number of mast cells disrupted as a consequence of the antigen-antibody reaction were counted under a microscope. The number of the mast cells disrupted were also counted without the addition of the specific antigen.
A given test compound dissolved in 1 % NaHCO3 solution was added to the incubation medium at a concentration of 10^-5 g/ml, 5 minutes prior to the treatment of antigen, while only the vehicle was added to the control group.
The efficacy of the test compounds to inhibit the mast cell disruption was compared with the value (%) calculated using the following formula: [formula] wherein P stands for the percentage of disrupted mast cells in the control group, Q for the percentage of mast cells disrupted spontaneously and R for the percentage of disrupted mast cells in the group treated with a given test compound.

The test system of another series is mast cells. Particulars: known art, cited from earlier work.
Series [3] concerns homologous passive cutaneous anaphylaxis (antigen-antibody reaction). As to the kind of experiment: Homologous Passive Cutaneous Anaphylaxis in Rats. In kind it is in vivo, rat (Wistar male). Particulars: Rattus norvegicus, po; 200 mg/kg orally 2 hours prior to the injection of antigen. As for the experimental part:
Wistar male rats weighing 120-150 g were used in this experiment. […]. Normal rats were sensitized passively with dilution of the antibody by means of intradermal injection. After 48 hours of the sensitization, the mixture of antigen (EA) and evens blue was injected intravenously. The animals were killed by a blow on the head 30 minutes after the injection, and then the blue spot resulted from the antigen-antibody reaction was measured photometrically.
A given test compound dissolved in 1 % NaHCO3 solution was administrated in a dose of 200 mg/kg orally 2 hours prior to the injection of antigen, while only the vehicle solution was administered to the control group.
The efficacy of the test compounds to inhibit the homologous passive cutaneous anaphlaxis was compared with the value (%) calculated using the following formula: [formula] wherein A stands for the amount of leaked dye in control group and B for the amount of leaked dye in the group administered with a given test compound.

Series [4] is described as follows: Acute Toxicity (LD50) in mice. In kind it is in vivo. The following applies: mouse, in vivo, po, mortality on the 8th day. The procedure: (§1) The median lethal dose (LD50) of the new aromatic carboxylic acid amide derivatives of this invention were determined in dd-stain male and female mice (6 weeks old) by oral administration and in Wistar strain male and female rats (7 weeks old) by oral and intraperitoneal administration. Each animal selected for the experiment was maintained in an air conditioned room at a temperature of 22° ± 1° C and a relative humidity of 55 ± 5% during the full course of the experiment. All animals were fed compressed pellets (CE-2 type produced by Japan CLEA Co.) and water was available ad libitum by bottle. Five groups of ten animals for each administration route were used.
(§2) Since these compounds were isoluble in water, they were suspended in a 0.5% aqueous solution of carboxymethylcellulose at each dosage level. The administrative volume of each agent to 10 g body weight mouse was 0.2 ml for oral administration, while that to 100g body weight of rat was 0.5 ml for intraperitoneal and oral administrations.
(§3) The LD50 values were calculated from the mortality on the 8th day by the Litchfield-Wilcoxon's method.

The next series relates to dd-stain mice. Nature of the series: Acute Toxicity (LD50) in mice. It is filed as in vivo. Particulars: oral, mortality on the 8th day, 11520 min. As for the experimental part: as §1, §2, §3
Series [5] concerns experimental asthma in rats. As to the kind of experiment: Experimental Asthma in Rats. It is filed as in vivo, rat. Particulars: for minimal effective dose: Rattus norvegicus, oral, 2 hours before antigen injection. The procedure: Twenty normal male rats weighing 120-150 g were divided into four groups each consisting of five rats. All of the rats were sensitized passively by means of intravenous injection of rat reaginic antibody. After a lapse of 22 hours of sensitization, 5 milliliters of a 1% aqueous solution of NaHCO3 containing (3',4'-dimethoxycinnamoylamino)-benzoic acid* in a dose of 0 mg/kg (control), 5 mg/kg, 10 mg/kg and 20 mg/kg were orally administered to the rats in each group, and then canulation was begun on both the trachea and the common carotid artery on the rats. The rate and volume of respiration and systemic blood pressure were recorded simultaneously on a polygraph.
After 2 hours of administration, the challenge symptoms were subjected, by means of injection of the antigen, and the results are shown in the drawing attached herewith.

A short description of series [6]: Acute Toxicity (LD50) in rats. In kind it is in vivo. The following applies: rat, in vivo, mortality on the 8th day. As for the experimental part: as §1, §2, §3
Another series concerns Wistar strain rats. Nature of the series: Acute Toxicity (LD50) in rats. It is filed as in vivo. The following applies: mortality on the 8th day, 11520 min. As for the experimental part: as §1, §2, §3
Series [7] relates to adult patients having asthma bronchiale. Nature of the series: Clinical trial for adults. In kind it is in vivo, human. Particulars: oral. From the text:
A clinical trial was made by administering 2-(3',[…]-dimethoxycinnamoylamino)-benzoic acid orally to adult patients having asthma bronchiale. These patients having asthma bronchiale were chosen from those suffering from atopic and mixed forms. Determination of the effect were integrally judged from the extent of subjective symptoms (the number of asthma attacks, the degree of dyspnea, wheeze, the number of cough attacks and sputum expectoration), objective findings (dry rale) and pulmonary function test.
The effect was evaluated by five grades of "remarkable improvement", "moderate improvement", "slight improvement", "unchanged", and "aggravated". A daily dose (400-600 mg) of the active compound in the powdery preparation obtained in Example 12 was administered orally to patients in equal portions four times daily, ie, after every meal and before sleeping.

Series [8] concerns child patients having asthma bronchiale. As to the kind of experiment: Clinical trial for children. It is filed as in vivo, human. Particulars: oral. From the text: A clinical trial was made by orally administering Compound No. 33 to child patients having asthma bronchiale. Child patients having asthma bronchiale in atopic and mixed forms were chosen for the clinical trial. Determination of the effect was integrally judged from the extent of subjective symptoms (the number of asthma attacks, the degree of dyspnea, wheeze, the number of cough attacks and sputum expectoration), objective findings (dry rale) and pulmonary function test.
The effect was evaluated by five grades of "remarkable improvement", "moderate improvement", "slight improvement", "unchanged"and "aggravated". A daily dose (100-200 mg) of the active compound in the powdery preparation obtained in Example 12 was administered orally to patients in equal portions four times a day, i.e., after every meal and before sleeping.

As for `O=C(O)c1cc(=O)c2c(OCC(O)COc3cccc4oc(C(=O)O)cc(=O)c34)cccc2o1` [Disodium cromoglycate], in series [1], the “pharmacological effect when administered orally (in words)” value is reported as “loses its pharmacological effect when administered orally”. In addition, the “Inhibition percentage (mast cell disruption)” value in series [2] is 16%. Besides, the “inhibition of mast cell disruption (in words)” value was “inhibitor of mast cell disruption” with mast cells; “inhibits the disruption of mast cells and release therefrom of chemical mediators” with mast cells (listed as disodium cromoglycate).
Regarding `COc1ccc(C=CC(=O)Nc2ccccc2C(=O)O)cc1OC` [Compound No. 33, N-(3',4'-dimethoxycinnamoyl)-anthranilic acid], in [2], the “Inhibition percentage (mast cell disruption)” value was 33%. Moreover, 200 mg/kg produced 46.1% inhibition in [3]. The median lethal dose (LD50) at 192 h was found to be 705 mg/kg in series [4]; 385 mg/kg in series [6] (ip, intraperitoneal); 1850 mg/kg in [6] (po). For the same compound, the LD50 with dd-stain mice came out at 500 mg/kg; in the series with Wistar strain rats (intraperitoneal) it was 338 mg/kg; in the series with Wistar strain rats (oral), 2030 mg/kg. The minimal effective dose in series [5] (read-out: dose showing inhibition of decrease in the rate of respiration) was at least 5 mg/kg; in [5] (read-out: dose showing inhibition of decrease in the volume of respiration) it was at least 10 mg/kg. Moreover, the “Asthmatic symptoms resulting from the challenge” value in series [5] (oral 5, 10, 20 mg/kg) was “observed in the control group only”. Further, the “effect on depression of blood pressure just after the challenge” value in [5] (oral 5, 10, 20 mg/kg, just after the challenge) was “no inhibiting effect”. Moreover, the “effect on subsequent depression of blood pressure” value in [5] (oral 5, 10, 20 mg/kg, subsequent depression) was “showed an inhibiting effect on subsequent depression”. In addition, the Evaluation result in series [7] (400mg × 14 days) is given as “slight imp”; in series [7] (400mg × 21 days), “mod. impr”; in series [7] (600mg × 14 days, row), “slight imp; also recorded: mod. impr”; in series [7] (600mg × 20 days), “unchanged”; in series [7] (600mg × 21 days) it was “unchanged”; in [7] (600mg × 24 days) it was “mod. impr”. Also, the results for the Evaluation entry in series [8] (200 mg × 15 days), in series [8] (200 mg × 29 days) and in series [8] (200 mg × 35 days) were “mod. impr”, “slight impr” and “slight imp”, respectively. In addition, the Side effect result in series [7] (400mg × 14 days), in series [7] (400mg × 21 days), in series [7] (600mg × 14 days), in [7] (600mg × 20 days), in series [7] (600mg × 21 days) and in [7] (600mg × 24 days) was “none” in each case. In addition, the Side effect entry in [8] (200 mg × 15 days), in series [8] (200 mg × 29 days) and in series [8] (200 mg × 35 days) was “none” throughout.

For orientation: inhibition means how much of the control response was suppressed. In general, LD50 refers to the dose at which mortality reaches 50%. A high value points to a less toxic substance.
